Consider 2 molecules from ChEMBL document CHEMBL6120978, “Anticancer activity of salinomycin quaternary phosphonium salts” (Eur J Med Chem, 2025).

The structures appear in SMILES notation. The source made the active and inactive calls. No cut-off for these calls is given here.

The test system of data set [1] is A549. The data set can be described thus: Induction of mitochondrial respiration in human A549 cells assessed as increase in oxygen consumption rate upto 10 uM by Oxygraph-2K system. The class given is functional, cell-based.
For a further data set, the system named is Pseudomonas aeruginosa. Briefly: Antimicrobial activity against Pseudomonas aeruginosa ATCC 15442 incubated for 18 hrs by twofold microdilution method. The class given is functional.
Data set [2] relates to A549. Briefly: Induction of cell cycle arrest in human A549 cells assessed as accumulation of cells at G2 phase at IC50 incubated for 24 hrs by propidium iodide staining based flow cytometry analysis (reference value: 20.8 %). Type of data set: functional. In general terms: Flow cytometry measures light scatter and fluorescence of single cells or particles in a stream.
Data set [3] relates to MDA-MB-231. The data set can be described thus: Induction of apoptosis in human MDA-MB-231 cells assessed as late apoptotic cells at IC50 incubated for 72 hrs by Annexin V-FITC staining based flow cytometry analysis (reference value: 3.07 %). Type of data set: functional.
A further data set concerns Mitochondrial membrane. Briefly: Induction of mitochondrial membrane potential loss in human A549 cells assessed as red fluorescence at IC50 incubated for 48 hrs MitoTrackerRed CMXRos staining based flow cytometry analysis (reference value: 91.1 %). The class given is cell membranes.
Data set [4] deals with A549. Briefly: Effect on mitochondrial mass in human A549 cells assessed as fold increase in mean fluorescence intensity at IC50 incubated for 48 hrs by MitoTracker Green FM staining based flow cytometry analysis relative to control. The class given is functional.
Data set [5] relates to MDA-MB-231. The data set can be described thus: Induction of ROS generation of human MDA-MB-231 cells assessed as fold increase at IC50 incubated for 6 hrs by CellROX Green staining based spectrofluorometer analysis relative to control. The class given is functional.
In data set [6] the test system is MDA-MB-231. The data set can be described thus: Induction of cell cycle arrest in human […] cells assessed as accumulation of cells at S phase at IC50 incubated for 24 hrs by propidium iodide staining based flow cytometry analysis. Type of data set: functional.
For data set [7], the system named is Lipid bilayer. Briefly: Induction of current generation in azolectin bilayer membrane in presence of HEPES buffer by electrophysiology technique.
For data set [8], the system named is Staphylococcus epidermidis. Briefly: Antimicrobial activity against Staphylococcus epidermidis ATCC 12228 incubated for 18 hrs by twofold microdilution method. The class given is functional.
Data set [9] deals with Lipid bilayer. Briefly: Induction of ionic transport in azolectin bilayer membrane assessed as membrane rupture in presence of HEPES buffer by electrophysiology technique.
The subject of data set [10] is Lipid bilayer. Briefly: Induction of ionic transport in azolectin bilayer membrane assessed as irregular disturbance in membrane permeability in presence of HEPES buffer by electrophysiology technique.
Data set [11] deals with Lipid bilayer. Briefly: Induction of ionic transport in azolectin bilayer membrane assessed as specific channel-like structure formation in presence of HEPES buffer by electrophysiology technique.
For a further data set, the system named is Staphylococcus aureus. The data set can be described thus: Antimicrobial activity against Staphylococcus aureus NCTC 4163 incubated for 18 hrs by twofold microdilution method. The class given is functional. A general note: In broth dilution the organism is exposed to a series of concentrations in liquid medium.
The next data set concerns SW480. Briefly: Cytotoxicity against human SW480 cells incubated for 72 hrs by MTT assay. The class given is functional, cell-based. The following applies: SW480, 72 h.
In data set [12] the test system is MDA-MB-231. The data set can be described thus: Induction of cell cycle arrest in human […] cells assessed as accumulation of cells at G0/G1 phase at IC50 incubated for 24 hrs by propidium iodide staining based flow cytometry analysis (reference value: 50.9 %). Type of data set: functional.
Data set [13] relates to A549. Briefly: Effect on mitochondrial function in human A549 cells assessed as increase in MTRed CMXRos positive cells at IC50 incubated for 48 hrs by MitoTracker Red CMXRos staining based flow cytometry analysis relative to control. Type of data set: functional.
Data set [14] concerns MDA-MB-231. The data set can be described thus: Effect on mitochondrial mass in human MDA-MB-231 cells assessed as fold increase in mean fluorescence intensity at IC50 incubated for 48 hrs by MitoTracker Green FM staining based flow cytometry analysis relative to control. The class given is functional.
For the next data set, the system named is SW-620. Briefly: Cytotoxicity against human SW620 cells incubated for 72 hrs by MTT assay. The settings on record: SW-620, 72 h. The class given is functional, cell-based. A general note: Tetrazolium assays rely on reduction of a dye to a coloured formazan, in cell work by metabolically active cells.
Data set [15] can be described thus: Selectivity index, ratio of IC50 for cytotoxicity against chinese hamster V79 cells to IC50 for cytotoxicity against human A549 cells. The settings on record: V79 cells versus A549 cells, read-out: Ratio IC50. The class given is toxicity, cell-based.
The subject of data set [16] is MDA-MB-231. Briefly: Effect on mitochondrial function in human MDA-MB-231 cells assessed as fold increase in mean fluorescence intensity at IC50 incubated for 48 hrs by MitoTracker Red CMXRos staining based flow cytometry analysis relative to control. Type of data set: functional.
The nature of data set [17]: Selectivity index, ratio of IC50 for cytotoxicity against human HaCaT cells to IC50 for cytotoxicity against human SW620 cells. The class given is toxicity, cell-based. The following applies: HaCaT cells versus SW620 cells, read-out: Ratio IC50.
Data set [18] concerns A549. Briefly: Induction of cell cycle arrest in human A549 cells assessed as accumulation of cells at S phase at IC50 incubated for 24 hrs by propidium iodide staining based flow cytometry analysis (reference value: 21.6 %). Type of data set: functional.
Data set [19] concerns A549. The data set can be described thus: Induction of mitochondrial respiration in human A549 cells assessed as increase in oxygen consumption rate by Oxygraph-2K system. The class given is functional, cell-based.

The term MIC denotes the lowest concentration found to suppress growth. The low end stands for inhibition by little substance, the high end for a need for much substance. One may read the IC50 as the point on the concentration scale where inhibition reaches its midpoint. A low value points to inhibition by little substance. Take `CC[C@@H](C(=O)[C@@H](C)[C@@H](O)[C@H](C)[C@@H]1O[C@@H]([C@@H](CC)C(=O)OCCCC[P+](c2ccccc2)(c2ccccc2)c2ccccc2)CC[C@@H]1C)[C@H]1O[C@]2(C=C[C@@H](O)[C@]3(CC[C@@](C)([C@H]4CC[C@](O)(CC)[C@H](C)O4)O3)O2)[C@H](C)C[C@@H]1C.[Br-]`: the result in the data set on A549 [1] was Active. Moreover, the minimal inhibitory concentration (MIC) in the data set on Pseudomonas aeruginosa amounted to 256 µg/mL; in data set [8] it was 2 µg/mL; against Staphylococcus aureus, 2 µg/mL. Also, the Activity in the data set on A549 [2] was 12%; in the data set on MDA-MB-231 [3], 15.32%; in the data set with Mitochondrial membrane, 58.3%; in the data set with Lipid bilayer [7] it was “Dose-dependent-effect”; in the data set on MDA-MB-231 [12], 77.7%; in the data set on A549 [13], 50%. Also, the Activity in the data set with A549 [18] was 13.2%. For the same molecule, the “fold change (FC)” value in the data set on A549 [4] was found to be 6; with MDA-MB-231 [5], 2; in the data set on MDA-MB-231 [14], 8; in the data set with MDA-MB-231 [16], 3. In addition, the outcome in the data set on MDA-MB-231 [6], with Lipid bilayer [9], in the data set with Lipid bilayer [10] and in the data set with Lipid bilayer [11] was inactive. Besides, the half-maximal inhibitory concentration (IC50) was found to be 390 nM in the data set on SW480 and 140 nM in the data set on SW-620. Also, the selectivity ratio in data set [15] came out at 0.2; in data set [17], 8.8.
As for `CCCC[P+](CCCC)(CCCC)CCCCOC(=O)[C@H](CC)[C@H]1CC[C@H](C)[C@H]([C@@H](C)[C@H](O)[C@H](C)C(=O)[C@H](CC)[C@H]2O[C@]3(C=C[C@@H](O)[C@]4(CC[C@@](C)([C@H]5CC[C@](O)(CC)[C@H](C)O5)O4)O3)[C@H](C)C[C@@H]2C)O1.[Br-]`, the MIC was above 256 µg/mL with Pseudomonas aeruginosa, 2 µg/mL in data set [8] and 2 µg/mL in the data set with Staphylococcus aureus. The result with A549 [2] and with A549 [18] was Active. The Activity with MDA-MB-231 [3] is 21.8%; in the data set on Mitochondrial membrane it was 67.3%; in the data set on A549 [19] it was “Active; Small Increase In Oxygen Consumption Rate Was Observed”; with MDA-MB-231 [12], 76.2%; with A549 [13], 50%. The “fold change (FC)” value is given as 6 in the data set with A549 [4], 2 with MDA-MB-231 [5], 8 in the data set on MDA-MB-231 [14] and 5 with MDA-MB-231 [16]. In addition, the outcome with MDA-MB-231 [6] was inactive. Also, the results for the IC50 in the data set on SW480 and in the data set on SW-620 were 490 nM and 520 nM, respectively. In addition, the selectivity ratio in data set [15] came out at 0.7; in data set [17] it was 1.3.
